According to publication PMC7731283, “Synthesis and Biological Evaluation of Halogenated E-Stilbenols as Promising Antiaging Agents” (Molecules, 2020):

Columns and labels:
C2C12 cells [1] = test: MTT assay, cell vitality/proliferation; format: cell-based, mouse
Protocol: The oxidative stress plays one of the key roles in cell’s life path. For these reasons, to evaluate the possible cytotoxic effects of compounds 1–7 and their effect on the cell proliferative capacity and to define a suitable concentration range, all the new synthesized compounds 1–7 were evaluated for their cytotoxic activity at three different concentrations (1, 10 and 100 μM) via standard MTT assay, using C2C12 cell line (Figure 3). Due to well-known antioxidant and neurodegenerative senescence prevention abilities in addition to enhancing the beneficial effects of physical exercise on the skeletal muscles of the elderly, RSV was used as reference compound [54, 55]. […] For this reason, we performed the same assay also at 48 h for the compounds 5, 6 and RSV (Figure 4).
Prompted by the results obtained for compound 6 as a scavenge ROS due the presence of halogenated groups, we used the widely C2C12 mouse cells as a myogenic model, to study its antioxidant effects following both the evaluation of superoxide anion radical concentration and chemical insults, such as from H2O2. C2C12 cells (CRL 1772; American Type Culture Collection, Rockville, MD, USA) were grown in Dulbecco’s modified Eagle’s medium (DMEM; Euroclone, Pero, Italy) containing 20% foetal bovine serum (Euroclone), […] L-glutamine (Euroclone) and 100 IU mL^−1 penicillin and 100 μg mL^−1 streptomycin (Euroclone). The cells were maintained at 37 °C in a 5% CO2 humidified atmosphere.
Cellular proliferation was tested using a colorimetric assay of 3-[4,5-dimethylthiazol-2-yl]-2,5-diphenyltetrazolium bromide (MTT). We seeded 2000 cells/well in a final volume of 200 μL growth medium in 96-well plates. After 24 h the cells were stimulated with or w/o the newly synthesized compounds for 24 h, or, where indicated, for 48 h. We tested seven new synthesized compounds together with RSV reference at different concentration (1, 10, 100 μM). All compounds were dissolved in DMSO and the experimental dilutions used were made using cellular growth medium. For this reason, the cells were also incubated for 24 h with the DMSO at the same concentration used for the compounds. Incubation was terminated by adding 20 μL of MTT solution (5 mg mL^−1 in phosphate-buffered saline (PBS)) to each well, followed by incubation at 37 °C for 3 h in the dark. After, the plates were centrifuged at 2000 rpm for 15 min. The supernatant was removed, 200 μL dimethylsulfoxide (DMSO) was added to each well, and the plates were incubated for 30 min at 37 °C in the dark. Finally, the plates were read at 540 nm on a scanning multi-well spectrophotometer (Cary50MPR, Varian, Santa Clara, CA, USA).

C2C12 cells [2] = test: NBT assay, superoxide anion detection; format: cell-based, mouse; conditions: C2C12, 24 h incubation, 1 and 10 μM
Protocol: At first, the antioxidant effect of compound 6 was assessed by NBT assay (Figure 5). The NBT assay is based on the reduction of NBT into formazan by superoxide anion O2^-. […] The concentration of superoxide anion radical in the cells was determined by spectrophotometric method and is based on the reduction of Nitro blue tetrazolium chloride to Nitro blue-formazan in the presence of O2^-.
Since that during aging, among the ROS there are radicals as superoxide anion that can levels increase, [32] we used NBT assay in order to evaluate the antioxidant capacity of compound 6. C2C12 cells (10^6 cells) were stimulated with or w/o the compound 6 at 1 and 10 μM together with the RSV for 24 h, harvested, centrifuged for 5 min at 1200 rpm and resuspended in 1 mL 0.9% NaCl in which NBT (Nitro blue tetrazolium chloride) is dissolved 1 mg/mL. The cells were incubated for 3 h at 37 °C, centrifuged (for 10 min at 1200 rpm), resuspended in 1 mL DMSO and left 20’ in 37 °C. For the assay, the cells were plated in a 96 well plate (2 × 10^5 cell/well) and read by spectrophotometer at 550 nm on a scanning multi-well spectrophotometer (Cary50MPR, Varian, Santa Clara, CA, USA).

C2C12 cells [3] = test: H2DCFDA assay, intracellular ROS after H2O2 insult; format: cell-based, mouse
Protocol: Indeed, the antioxidant activity of compound 6 was also evaluated using an H2DCFDA assay (Figure 6). This assay is one of the most widely used techniques for directly measuring the redox state of a cell. In order to accurately measure ROS and the cellular capability to counteract the H2O2 insult, we used cell-permeable fluorescent and chemiluminescent probes. The fluorescence intensity is proportional to the ROS levels within the cell cytosol and it is in inverse relation to the antioxidant capacity of the cells themselves. The ability to restore the basal level of fluorescence are reported in Figure 6, after 0.5 and 10 min following oxidant stimulus.
Intracellular ROS were quantified by the 2′,7′-dichlorodihydrofluorescein diacetate (H2DCF-DA Cat. No. D6883; Sigma). C2C12 cells were plated (2000 cells/well) into special optics 96-well plates (Corning-Costar, New York, NY, USA) and the cells were treated with RSV at 1 µM and Compound 6 at 1 and 10 µM for 24 h. After the incubation, cells were washed with an imaging buffer and treated with 300 µM H2O2 for an immediate fluorescence measurement. Plates were read every 50 s from 0 to 10 min for kinetic data analysis using a microplate reader (Synergy H1, BioTek), with excitation and emission wavelengths at 490 nm and 520 nm, respectively, and analyzed by Gen 5 version 2.08 (BioTek).

[4] = Log P by RP-HPLC (HPLC-PDA), extrapolation of Log k to 0% MeOH; format: physicochemical; conditions: for Log k / Retention factor (k): RP-C18
Protocol: For each compound, the retention time was reported at different percentages of mobile phases (Table 1). See Materials and Methods and Supplementary Materials for the detailed procedures. (1) k= tR− tM/tM where tR is the retention time of the sample and tM is the retention time of blank (methanol).
Stock solutions of each compound were prepared as follow: 1 mg of the synthesized compound and RSV (control) was weighted and dissolved in 1 mL of dimethyl sulfoxide (DMSO). The working solutions were prepared in methanol at 100 µg/mL. 20 µL of working solutions was injected in HPLC system without pre-treatment.
The HPLC analyses for all new compounds were carried out in isocratic conditions with Milli-Q Water (18.2 MΩ-cm at 25 °C) as solvent A and MeOH as solvent B in different percentages reported in […]. RP-C18 stationary phase (LiChrosorb C18, 150 × 4.6 mm, 5 µm) column was used. All compounds were detected at their maximum wavelength: 322 nm for 1, 301 nm for 2, 324 nm for 3, 324 nm for 4, 373 nm for 5, 322 nm for 6, 320 nm for 7, whereas RSV was detected at 306 nm. The total run time was kept until sample elution.

[5] = parameters: method as in PMID 29315886, PMID 15779070; conditions: compared with RSV; cited from earlier work

Oc1ccc(/C=C/c2ccc(C(F)(F)F)cc2)cc1Cl [Compound 6, 2-Chloro-4-{(E)-2-[4-(trifluoromethyl)phenyl]vinyl}phenol]
cell vitality (MTT reduction) (C2C12 cells [1]; C2C12, 24 h, 100 μM): drastically reduced the vitality | cell vitality (MTT reduction) (C2C12 cells [1]; C2C12, 24 h, 1 and 10 μM): significant increase of the cell vitality | cell vitality (MTT reduction) (C2C12 cells [1]; C2C12, 48 h, 1 μM): moderate effect | cell vitality (MTT reduction) (C2C12 cells [1]; C2C12, 48 h, 10 μM): higher effect | cell vitality (MTT reduction) (C2C12 cells [1]; C2C12, 48 h, 1 and 10 μM): enhanced vitality | O2- levels (NBT assay) (C2C12 cells [2]): significant decrease of O2^- levels | antioxidant capacity with respect to RSV (C2C12 cells [3]; C2C12, 10 μM, 300 µM H2O2): significantly higher antioxidant capacity | oxidant insult by H2O2 (H2DCFDA fluorescence) (C2C12 cells [3]; C2C12, 10 μM, 24 h pretreatment, 300 µM H2O2, stable throughout time-course): strongly counteracted | ROS levels (H2DCFDA fluorescence) (C2C12 cells [3]; C2C12, 24 h pretreatment, 300 µM H2O2, compared to CTRL): reduce the ROS levels | Log k ([4]; 60% MeOH): 1.4227 | Retention factor (k) ([4]; 60% MeOH): 26.4651 | Log k ([4]; 65% MeOH): 1.0820 | Retention factor (k) ([4]; 65% MeOH): 12.0776 | Log k ([4]; 70% MeOH): 0.7645 | Retention factor (k) ([4]; 70% MeOH): 5.8149 | Log k ([4]; 75% MeOH): 0.4605 | Retention factor (k) ([4]; 75% MeOH): 2.8871 | Log k ([4]; 80% MeOH): 0.1498 | Retention factor (k) ([4]; 80% MeOH): 1.4118 | chromatographic logP ([4]; Log P estimated by RP-HPLC, extrapolated to 0% MeOH, SD at 95% confidence interval): 5.21 ± 0.06 | melting point: 117 to 118.4 °C

COc1cc(/C=C/c2ccc(O)cc2)cc(OC)c1 [pterostilbene]
metabolic stability [5]: more metabolically stable
